Measurements reported in US20240365784A1, “AZOLE COMPOUNDS FOR CONTROLLING INVERTEBRATE PESTS” (FMC Corporation, priority 2021, published 2024).

System: corn planthopper (Peregrinus maidis (Ashmead))
Assay: whole plant or invertebrate
Type: in vivo
Details: 144 h, sprayed at 10 ppm, corn plant, nymphs, assessed after 6 days
Procedure: (§1) Test compounds were formulated using a solution containing 10% acetone, 90% water and 300 ppm Activator 90® non-ionic surfactant (Loveland Products, Loveland, Colorado, USA). The formulated compounds were applied in 1 mL of liquid through an atomizer nozzle positioned 1.27 cm (0.5 inches) above the top of each test unit. Test compounds were sprayed at the rates indicated, and each test was replicated three times.
For evaluating control of corn planthopper (Peregrinus maidis (Ashmead)) through contact and/or systemic means, the test unit consisted of a small open container with a 3-4-day-old corn (maize) plant inside. White sand was added to the top of the soil prior to application of the test compound.
Test compounds were formulated and sprayed at 250 and/or 50 ppm and/or 10 ppm. After spraying of the formulated test compound, the test units were allowed to dry for 1 h before they were post-infested with ˜15-20 nymphs (18-to-21-day-old). A black, screened cap was placed on the top of each test unit, and the test units were held for 6 days in a growth chamber at 22-24° C. and 50-70% relative humidity. Each test unit was then visually assessed for insect mortality.

Row | Structure (SMILES) | mortality at 10 ppm [%]
1 | CC(c1ccc(OC(F)(F)F)cc1)c1c(F)cncc1-n1nccn1 (stereo not shown) [Compound 9, 3-fluoro-5-(triazol-2-yl)-4-[1-[4-(trifluoromethoxy)phenyl]ethyl]pyridine] | ≥ 80
2 | FC(F)(F)Oc1ccc(Cc2c(Cl)cncc2-n2nccn2)cc1 [Compound 12] | ≥ 80
3 | FC(F)(F)Sc1ccc(Cc2ccncc2-n2nccn2)cc1 [Compound 23] | ≥ 80
4 | Fc1cncc(-c2ncco2)c1Cc1ccc(SC(F)(F)F)cc1 [Compound 30] | ≥ 80
5 | Fc1cncc(-c2nccs2)c1Cc1ccc(OC(F)(F)F)cc1 [Compound 40] | ≥ 80
6 | Fc1cncc(-c2ncco2)c1Cc1ccc(OC(F)(F)F)cc1 [Compound 41] | ≥ 80
7 | FC(F)Oc1ccc(Cc2c(Cl)cncc2-n2cccn2)cc1 [Compound 45] | ≥ 80
8 | FC(F)Oc1ccc(Cc2c(Cl)cncc2-n2nccn2)cc1 [Compound 46] | ≥ 80
9 | CC(c1ccc(SC(F)(F)F)cc1)c1c(F)cncc1-c1nccs1 (stereo not shown) [Compound 54] | ≥ 80
10 | CCC(c1ccc(SC(F)(F)F)cc1)c1c(F)cncc1-n1nccn1 (stereo not shown) [Compound 57] | ≥ 80
11 | CC(c1ccc(OC(F)(F)F)cc1)c1c(F)cncc1-c1nccs1 (stereo not shown) [Compound 63] | ≥ 80
12 | Fc1cc(Cc2c(F)cncc2-n2nccn2)ccc1OC(F)(F)F [Compound 66] | ≥ 80
13 | FC(F)(F)Oc1ccc(Cc2c(Cl)cncc2-n2nccn2)cc1Br [Compound 68] | ≥ 80
14 | Fc1cncc(-n2nccn2)c1Cc1ccc(OC(F)(F)F)c(Br)c1 [Compound 69] | ≥ 80
15 | FC(F)(F)Oc1ccc(Cc2c(Cl)cncc2-n2nccn2)cc1Cl [Compound 71] | ≥ 80
16 | Fc1cc(Cc2c(Cl)cncc2-n2nccn2)ccc1C(F)(F)F [Compound 72] | ≥ 80

Same assay, conditions: 144 h, sprayed at 50 ppm, corn plant, nymphs, assessed after 6 days

Row | Structure (SMILES) | mortality at 50 ppm [%]
17 | CC(c1ccc(OC(F)(F)F)cc1)c1c(F)cncc1-n1nccn1 (stereo not shown) [Compound 9, 3-fluoro-5-(triazol-2-yl)-4-[1-[4-(trifluoromethoxy)phenyl]ethyl]pyridine] | ≥ 80
18 | FC(F)(F)Oc1ccc(Cc2c(Cl)cncc2-n2nccn2)cc1 [Compound 12] | ≥ 80
19 | FC(F)(F)Sc1ccc(Cc2ccncc2-n2nccn2)cc1 [Compound 23] | ≥ 80
20 | Fc1cncc(-c2ncco2)c1Cc1ccc(SC(F)(F)F)cc1 [Compound 30] | ≥ 80
21 | Fc1cncc(-c2nccs2)c1Cc1ccc(OC(F)(F)F)cc1 [Compound 40] | ≥ 80
22 | Fc1cncc(-c2ncco2)c1Cc1ccc(OC(F)(F)F)cc1 [Compound 41] | ≥ 80
23 | FC(F)Oc1ccc(Cc2c(Cl)cncc2-n2cccn2)cc1 [Compound 45] | ≥ 80
24 | FC(F)Oc1ccc(Cc2c(Cl)cncc2-n2nccn2)cc1 [Compound 46] | ≥ 80
25 | CC(c1ccc(SC(F)(F)F)cc1)c1c(F)cncc1-c1nccs1 (stereo not shown) [Compound 54] | ≥ 80
26 | CCC(c1ccc(SC(F)(F)F)cc1)c1c(F)cncc1-n1nccn1 (stereo not shown) [Compound 57] | ≥ 80
27 | CC(c1ccc(OC(F)(F)F)cc1)c1c(F)cncc1-c1nccs1 (stereo not shown) [Compound 63] | ≥ 80
28 | Fc1cc(Cc2c(F)cncc2-n2nccn2)ccc1OC(F)(F)F [Compound 66] | ≥ 80
29 | FC(F)(F)Oc1ccc(Cc2c(Cl)cncc2-n2nccn2)cc1Br [Compound 68] | ≥ 80
30 | Fc1cncc(-n2nccn2)c1Cc1ccc(OC(F)(F)F)c(Br)c1 [Compound 69] | ≥ 80
31 | FC(F)(F)Oc1ccc(Cc2c(Cl)cncc2-n2nccn2)cc1Cl [Compound 71] | ≥ 80
32 | Fc1cc(Cc2c(Cl)cncc2-n2nccn2)ccc1C(F)(F)F [Compound 72] | ≥ 80

System: green peach aphid (Myzus persicae (Sulzer))
Assay: whole plant or invertebrate
Type: in vivo
Details: 144 h, sprayed at 50 ppm, radish plant, assessed after 6 days
Procedure: as §1
For evaluating control of green peach aphid (Myzus persicae (Sulzer)) through contact and/or systemic means, the test unit consisted of a small open container with a 12-15-day-old radish plant inside. This was pre-infested by placing on a leaf of the test plant 30-40 aphids on a piece of leaf excised from a culture plant (cut-leaf method). The aphids moved onto the test plant as the leaf piece desiccated. After pre-infestation, the soil of the test unit was covered with a layer of sand.
Test compounds were formulated and sprayed at 250 and/or 50 ppm. After spraying of the formulated test compound, each test unit was allowed to dry for 1 hour and then a black, screened cap was placed on top. The test units were held for 6 days in a growth chamber at 19-21° C. and 50-70% relative humidity. Each test unit was then visually assessed for insect mortality.

Row | Structure (SMILES) | mortality at 50 ppm [%]
33 | CC(c1ccc(OC(F)(F)F)cc1)c1c(F)cncc1-n1nccn1 (stereo not shown) [Compound 9, 3-fluoro-5-(triazol-2-yl)-4-[1-[4-(trifluoromethoxy)phenyl]ethyl]pyridine] | ≥ 80
34 | FC(F)(F)Oc1ccc(Cc2c(Cl)cncc2-n2nccn2)cc1 [Compound 12] | ≥ 80
35 | FC(F)(F)Sc1ccc(Cc2ccncc2-n2nccn2)cc1 [Compound 23] | ≥ 80
36 | CC(c1ccc(OC(F)(F)F)cc1)c1c(F)cncc1-c1nccs1 (stereo not shown) [Compound 63] | ≥ 80
37 | FC(F)(F)Oc1ccc(Cc2c(Cl)cncc2-n2nccn2)cc1Br [Compound 68] | ≥ 80
38 | Fc1cncc(-n2nccn2)c1Cc1ccc(OC(F)(F)F)c(Br)c1 [Compound 69] | ≥ 80
39 | FC(F)(F)Oc1ccc(Cc2c(Cl)cncc2-n2nccn2)cc1Cl [Compound 71] | ≥ 80
40 | Fc1cc(Cc2c(Cl)cncc2-n2nccn2)ccc1C(F)(F)F [Compound 72] | ≥ 80

System: cotton melon aphid (Aphis gossypii (Glover))
Assay: whole plant or invertebrate
Type: in vivo
Details: 144 h, sprayed at 50 ppm, okra plant, assessed after 6 days
Procedure: as §1
For evaluating control of cotton melon aphid (Aphis gossypii (Glover)) through contact and/or systemic means, the test unit consisted of a small open container with a 5-day-old okra plant inside. This was pre-infested with 30-40 insects on a piece of leaf according to the cut-leaf method, and the soil of the test unit was covered with a layer of sand.
[…] After spraying, the test units were maintained in a growth chamber for 6 days at 19° C. and 70% relative humidity. Each test unit was then visually assessed for insect mortality.

Row | Structure (SMILES) | mortality at 50 ppm [%]
41 | CC(c1ccc(OC(F)(F)F)cc1)c1c(F)cncc1-n1nccn1 (stereo not shown) [Compound 9, 3-fluoro-5-(triazol-2-yl)-4-[1-[4-(trifluoromethoxy)phenyl]ethyl]pyridine] | ≥ 80
42 | FC(F)(F)Oc1ccc(Cc2c(Cl)cncc2-n2nccn2)cc1 [Compound 12] | ≥ 80
43 | FC(F)(F)Sc1ccc(Cc2ccncc2-n2nccn2)cc1 [Compound 23] | ≥ 80
44 | Fc1cncc(-c2ncco2)c1Cc1ccc(SC(F)(F)F)cc1 [Compound 30] | ≥ 80
45 | Fc1cncc(-c2nccs2)c1Cc1ccc(OC(F)(F)F)cc1 [Compound 40] | ≥ 80
46 | Fc1cncc(-c2ncco2)c1Cc1ccc(OC(F)(F)F)cc1 [Compound 41] | ≥ 80
47 | FC(F)Oc1ccc(Cc2c(Cl)cncc2-n2cccn2)cc1 [Compound 45] | ≥ 80
48 | FC(F)Oc1ccc(Cc2c(Cl)cncc2-n2nccn2)cc1 [Compound 46] | ≥ 80
49 | CC(c1ccc(SC(F)(F)F)cc1)c1c(F)cncc1-c1nccs1 (stereo not shown) [Compound 54] | ≥ 80
50 | CCC(c1ccc(SC(F)(F)F)cc1)c1c(F)cncc1-n1nccn1 (stereo not shown) [Compound 57] | ≥ 80
51 | CC(c1ccc(OC(F)(F)F)cc1)c1c(F)cncc1-c1nccs1 (stereo not shown) [Compound 63] | ≥ 80
52 | Fc1cc(Cc2c(F)cncc2-n2nccn2)ccc1OC(F)(F)F [Compound 66] | ≥ 80
53 | Fc1cncc(-n2nccn2)c1Cc1ccc(OC(F)(F)F)c(Br)c1 [Compound 69] | ≥ 80
54 | FC(F)(F)Oc1ccc(Cc2c(Cl)cncc2-n2nccn2)cc1Cl [Compound 71] | ≥ 80
55 | Fc1cc(Cc2c(Cl)cncc2-n2nccn2)ccc1C(F)(F)F [Compound 72] | ≥ 80

Same assay, conditions: 144 h, tested at 10 ppm, okra plant, assessed after 6 days

Row | Structure (SMILES) | mortality at 10 ppm [%]
56 | CC(c1ccc(OC(F)(F)F)cc1)c1c(F)cncc1-n1nccn1 (stereo not shown) [Compound 9, 3-fluoro-5-(triazol-2-yl)-4-[1-[4-(trifluoromethoxy)phenyl]ethyl]pyridine] | ≥ 80
57 | Fc1cncc(-c2ncco2)c1Cc1ccc(SC(F)(F)F)cc1 [Compound 30] | ≥ 80
58 | Fc1cncc(-c2nccs2)c1Cc1ccc(OC(F)(F)F)cc1 [Compound 40] | ≥ 80
59 | Fc1cncc(-c2ncco2)c1Cc1ccc(OC(F)(F)F)cc1 [Compound 41] | ≥ 80
60 | CC(c1ccc(OC(F)(F)F)cc1)c1c(F)cncc1-c1nccs1 (stereo not shown) [Compound 63] | ≥ 80
61 | Fc1cc(Cc2c(F)cncc2-n2nccn2)ccc1OC(F)(F)F [Compound 66] | ≥ 80

System: sweetpotato whitefly (Bemisia tabaci (Gennadius))
Assay: whole plant or invertebrate
Type: in vivo
Details: 312 h, sprayed at 50 ppm, cotton plant infested with eggs, assessed after 13 days
Procedure: as §1
For evaluating control of the sweetpotato whitefly (Bemisia tabaci (Gennadius)) through contact and/or systemic means, the test unit consisted of a small open container with a 12-14-day-old cotton plant inside. Prior to the spray application, both cotyledons were removed from the plant, leaving one true leaf for the assay. Adult whiteflies were allowed to lay eggs on the plant and then were removed from the test unit. Cotton plants infested with at least 15 eggs were submitted to the test for spraying.
[…] After spraying, the test units were allowed to dry for 1 hour. The cylinders were then removed, and the units were taken to a growth chamber and held for 13 days at 28° C. and 50-70% relative humidity. Each test unit was then visually assessed for insect mortality.

Row | Structure (SMILES) | mortality at 50 ppm [%]
62 | CC(c1ccc(OC(F)(F)F)cc1)c1c(F)cncc1-n1nccn1 (stereo not shown) [Compound 9, 3-fluoro-5-(triazol-2-yl)-4-[1-[4-(trifluoromethoxy)phenyl]ethyl]pyridine] | ≥ 70
63 | FC(F)(F)Sc1ccc(Cc2ccncc2-n2nccn2)cc1 [Compound 23] | ≥ 70
64 | Fc1cncc(-c2nccs2)c1Cc1ccc(OC(F)(F)F)cc1 [Compound 40] | ≥ 70
65 | FC(F)Oc1ccc(Cc2c(Cl)cncc2-n2cccn2)cc1 [Compound 45] | ≥ 70
66 | FC(F)Oc1ccc(Cc2c(Cl)cncc2-n2nccn2)cc1 [Compound 46] | ≥ 70
67 | CC(c1ccc(SC(F)(F)F)cc1)c1c(F)cncc1-c1nccs1 (stereo not shown) [Compound 54] | ≥ 70
68 | CCC(c1ccc(SC(F)(F)F)cc1)c1c(F)cncc1-n1nccn1 (stereo not shown) [Compound 57] | ≥ 70
69 | CC(c1ccc(OC(F)(F)F)cc1)c1c(F)cncc1-c1nccs1 (stereo not shown) [Compound 63] | ≥ 70
70 | Fc1cc(Cc2c(F)cncc2-n2nccn2)ccc1OC(F)(F)F [Compound 66] | ≥ 70
71 | FC(F)(F)Oc1ccc(Cc2c(Cl)cncc2-n2nccn2)cc1Br [Compound 68] | ≥ 70
72 | Fc1cncc(-n2nccn2)c1Cc1ccc(OC(F)(F)F)c(Br)c1 [Compound 69] | ≥ 70
73 | FC(F)(F)Oc1ccc(Cc2c(Cl)cncc2-n2nccn2)cc1Cl [Compound 71] | ≥ 70
74 | Fc1cc(Cc2c(Cl)cncc2-n2nccn2)ccc1C(F)(F)F [Compound 72] | ≥ 70

Same assay, conditions: 312 h, tested at 10 ppm, cotton plant infested with eggs, assessed after 13 days

Row | Structure (SMILES) | mortality at 10 ppm [%]
75 | Fc1cncc(-c2nccs2)c1Cc1ccc(OC(F)(F)F)cc1 [Compound 40] | ≥ 70
76 | FC(F)Oc1ccc(Cc2c(Cl)cncc2-n2nccn2)cc1 [Compound 46] | ≥ 70
77 | CCC(c1ccc(SC(F)(F)F)cc1)c1c(F)cncc1-n1nccn1 (stereo not shown) [Compound 57] | ≥ 70
78 | FC(F)(F)Oc1ccc(Cc2c(Cl)cncc2-n2nccn2)cc1Br [Compound 68] | ≥ 70
79 | FC(F)(F)Oc1ccc(Cc2c(Cl)cncc2-n2nccn2)cc1Cl [Compound 71] | ≥ 70
